Reference: PMC7026418, “The kinase polypharmacology landscape of clinical PARP inhibitors” (Scientific Reports, 2020)
Read-outs that look alike come from different tables or passages of the source. Each block holds one molecule with its values, some of them ahead of it.

Experiments:
Assay in all cases: biochemical
Design in all cases: DiscoveRx KINOMEscan active site-directed competition binding; percent of control kinase bound to immobilised ligand
PRKD2 = target: T1, PRKD2 (Homo sapiens, UniProt Q9BZL6)
T1 sequence (Q9BZL6 1-878): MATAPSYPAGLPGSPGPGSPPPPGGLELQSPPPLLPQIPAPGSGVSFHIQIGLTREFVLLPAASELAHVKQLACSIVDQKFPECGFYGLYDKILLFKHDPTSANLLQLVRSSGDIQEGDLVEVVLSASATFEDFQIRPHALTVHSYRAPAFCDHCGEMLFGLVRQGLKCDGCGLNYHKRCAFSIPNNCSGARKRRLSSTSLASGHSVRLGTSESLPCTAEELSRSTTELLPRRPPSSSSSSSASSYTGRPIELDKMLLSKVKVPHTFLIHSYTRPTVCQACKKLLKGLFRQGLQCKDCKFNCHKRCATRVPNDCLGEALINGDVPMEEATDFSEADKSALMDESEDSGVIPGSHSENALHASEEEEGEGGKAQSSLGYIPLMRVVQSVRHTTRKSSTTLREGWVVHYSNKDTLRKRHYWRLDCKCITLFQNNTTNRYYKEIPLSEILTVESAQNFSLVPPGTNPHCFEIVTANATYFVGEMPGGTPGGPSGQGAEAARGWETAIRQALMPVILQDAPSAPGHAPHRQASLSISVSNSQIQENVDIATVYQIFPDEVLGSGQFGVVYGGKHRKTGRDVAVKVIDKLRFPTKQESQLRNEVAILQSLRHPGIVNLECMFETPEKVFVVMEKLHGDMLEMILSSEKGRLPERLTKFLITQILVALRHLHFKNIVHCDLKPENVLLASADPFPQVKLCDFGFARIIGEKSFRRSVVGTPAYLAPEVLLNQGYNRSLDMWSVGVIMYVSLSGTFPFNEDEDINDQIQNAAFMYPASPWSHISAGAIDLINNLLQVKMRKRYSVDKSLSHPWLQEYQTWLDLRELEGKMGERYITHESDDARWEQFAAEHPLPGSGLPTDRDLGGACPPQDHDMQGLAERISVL

FGR = FGR (Homo sapiens, UniProt P09769)
[1] = target: T2, JAK1(JH1domain-catalytic) (Homo sapiens, UniProt P23458)
T2 construct: JH1domain-catalytic

PKAC-beta = target: T3, PKAC-beta (Homo sapiens, UniProt P22694)
T3 construct: gene PRKACB

WEE2 = WEE2 (Homo sapiens, UniProt P0C1S8)
MAP3K3 = target: T4, MAP3K3 (Homo sapiens, UniProt Q99759)
T4 sequence (Q99759 1-626): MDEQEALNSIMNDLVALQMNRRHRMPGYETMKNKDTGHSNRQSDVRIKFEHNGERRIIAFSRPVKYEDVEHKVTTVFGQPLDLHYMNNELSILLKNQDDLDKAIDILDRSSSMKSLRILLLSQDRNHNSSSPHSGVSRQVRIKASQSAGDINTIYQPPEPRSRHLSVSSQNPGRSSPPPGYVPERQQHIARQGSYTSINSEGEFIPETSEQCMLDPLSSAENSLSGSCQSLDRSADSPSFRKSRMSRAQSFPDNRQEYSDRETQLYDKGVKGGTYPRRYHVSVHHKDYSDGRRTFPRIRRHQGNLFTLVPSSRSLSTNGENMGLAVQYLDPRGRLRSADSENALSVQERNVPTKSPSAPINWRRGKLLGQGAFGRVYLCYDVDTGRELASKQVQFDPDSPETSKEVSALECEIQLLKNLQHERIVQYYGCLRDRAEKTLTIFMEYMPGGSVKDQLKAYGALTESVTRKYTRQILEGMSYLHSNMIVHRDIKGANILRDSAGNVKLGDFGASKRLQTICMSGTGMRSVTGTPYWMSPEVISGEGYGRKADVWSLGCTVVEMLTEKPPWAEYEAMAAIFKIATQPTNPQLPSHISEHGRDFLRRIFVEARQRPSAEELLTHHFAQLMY

[2] = read-out: Niraparib (MK-4827) / %Ctrl @ 10000nM
[3] = read-out: Rucaparib / %Ctrl @ 10000nM, binding competition, % of control
[4] = read-out: Olaparib / %Ctrl @ 10000nM
[5] = read-out: Talazoparib (BMN 673) / %Ctrl @ 10000nM

T2 sequence (P23458 whole entry): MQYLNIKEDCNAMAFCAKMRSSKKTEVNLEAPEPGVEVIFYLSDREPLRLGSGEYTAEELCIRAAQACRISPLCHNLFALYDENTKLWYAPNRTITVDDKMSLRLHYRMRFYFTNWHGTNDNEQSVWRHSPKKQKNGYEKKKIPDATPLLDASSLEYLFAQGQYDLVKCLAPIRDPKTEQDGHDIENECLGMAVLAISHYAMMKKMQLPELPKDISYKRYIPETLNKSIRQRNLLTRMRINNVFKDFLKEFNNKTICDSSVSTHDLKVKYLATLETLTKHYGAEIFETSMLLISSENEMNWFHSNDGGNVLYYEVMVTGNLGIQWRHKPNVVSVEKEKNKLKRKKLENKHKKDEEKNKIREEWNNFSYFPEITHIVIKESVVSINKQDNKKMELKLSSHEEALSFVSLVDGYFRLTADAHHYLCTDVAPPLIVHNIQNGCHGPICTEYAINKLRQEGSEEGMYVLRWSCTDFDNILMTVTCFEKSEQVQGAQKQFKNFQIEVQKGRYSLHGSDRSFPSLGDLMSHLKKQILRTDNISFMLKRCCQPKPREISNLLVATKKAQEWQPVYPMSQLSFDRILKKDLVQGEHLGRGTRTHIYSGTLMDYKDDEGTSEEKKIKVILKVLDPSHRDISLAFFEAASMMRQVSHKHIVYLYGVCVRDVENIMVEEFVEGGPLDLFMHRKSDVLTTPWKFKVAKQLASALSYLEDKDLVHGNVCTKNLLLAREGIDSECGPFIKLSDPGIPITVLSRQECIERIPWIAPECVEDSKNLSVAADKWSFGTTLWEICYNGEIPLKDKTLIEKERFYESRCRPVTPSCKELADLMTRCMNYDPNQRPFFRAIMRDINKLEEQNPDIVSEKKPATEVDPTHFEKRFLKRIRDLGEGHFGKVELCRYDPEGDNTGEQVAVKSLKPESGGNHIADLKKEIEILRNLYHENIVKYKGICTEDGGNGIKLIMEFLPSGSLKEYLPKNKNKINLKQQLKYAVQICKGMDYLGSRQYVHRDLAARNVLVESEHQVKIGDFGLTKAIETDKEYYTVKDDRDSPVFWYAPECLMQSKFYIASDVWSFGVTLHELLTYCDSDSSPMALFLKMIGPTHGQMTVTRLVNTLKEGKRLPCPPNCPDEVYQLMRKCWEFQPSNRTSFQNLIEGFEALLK
Sequence of FGR (P09769 whole entry): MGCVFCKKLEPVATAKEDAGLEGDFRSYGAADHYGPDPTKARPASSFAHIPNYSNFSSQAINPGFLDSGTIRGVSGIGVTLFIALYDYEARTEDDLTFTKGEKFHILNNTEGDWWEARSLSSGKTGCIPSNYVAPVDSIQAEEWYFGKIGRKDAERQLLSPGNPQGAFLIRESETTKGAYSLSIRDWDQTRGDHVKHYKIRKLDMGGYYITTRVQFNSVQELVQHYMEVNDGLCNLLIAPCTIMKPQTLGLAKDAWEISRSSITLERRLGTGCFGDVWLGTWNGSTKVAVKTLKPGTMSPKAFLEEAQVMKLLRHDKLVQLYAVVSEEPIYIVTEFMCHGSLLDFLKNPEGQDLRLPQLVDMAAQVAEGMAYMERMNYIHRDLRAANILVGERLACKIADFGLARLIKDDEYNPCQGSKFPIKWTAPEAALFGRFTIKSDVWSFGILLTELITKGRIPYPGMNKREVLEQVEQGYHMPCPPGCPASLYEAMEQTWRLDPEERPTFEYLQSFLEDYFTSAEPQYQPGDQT
Sequence of WEE2 (P0C1S8 whole entry): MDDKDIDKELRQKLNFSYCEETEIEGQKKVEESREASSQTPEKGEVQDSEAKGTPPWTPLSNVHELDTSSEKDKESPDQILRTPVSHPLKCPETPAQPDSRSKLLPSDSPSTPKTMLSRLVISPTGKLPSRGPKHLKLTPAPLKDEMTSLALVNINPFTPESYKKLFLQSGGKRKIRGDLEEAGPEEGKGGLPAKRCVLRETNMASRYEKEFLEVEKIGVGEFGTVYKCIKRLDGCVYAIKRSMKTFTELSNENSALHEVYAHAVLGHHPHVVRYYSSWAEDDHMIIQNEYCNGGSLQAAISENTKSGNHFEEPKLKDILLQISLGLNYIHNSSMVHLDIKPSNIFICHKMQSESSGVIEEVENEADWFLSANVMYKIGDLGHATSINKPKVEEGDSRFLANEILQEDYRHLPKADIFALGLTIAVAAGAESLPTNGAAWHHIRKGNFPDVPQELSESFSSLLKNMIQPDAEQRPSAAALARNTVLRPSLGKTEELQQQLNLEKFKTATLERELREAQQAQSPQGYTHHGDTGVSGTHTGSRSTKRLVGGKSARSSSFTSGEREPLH

SMILES: NC(=O)c1cccc2cn(-c3ccc([C@@H]4CCCNC4)cc3)nc12 [Niraparib]
percent of control binding at 10 µM (PRKD2; [2]): 87% | percent of control binding at 10 µM (FGR; [2]): 85% | percent of control binding at 10 µM [1, 2]: 100% | percent of control binding at 10 µM (PKAC-beta; [2]): 96% | percent of control binding at 10 µM (WEE2; [2]): 100% | percent of control binding at 10 µM (MAP3K3; [2]): 100%

percent of control binding at 10 µM (PRKD2; [3]): 77% | percent of control binding at 10 µM (FGR; [3]): 96% | percent of control binding at 10 µM [1, 3]: 100% | percent of control binding at 10 µM (PKAC-beta; [3]): 99% | percent of control binding at 10 µM (WEE2; [3]): 100% | percent of control binding at 10 µM (MAP3K3; [3]): 85%
SMILES: CNCc1ccc(-c2[nH]c3cc(F)cc4c3c2CCNC4=O)cc1 [Rucaparib]

percent of control binding at 10 µM (PRKD2; [4]): 95% | percent of control binding at 10 µM (FGR; [4]): 92% | percent of control binding at 10 µM [1, 4]: 81% | percent of control binding at 10 µM (PKAC-beta; [4]): 100% | percent of control binding at 10 µM (WEE2; [4]): 100% | percent of control binding at 10 µM (MAP3K3; [4]): 88%
SMILES: O=C(c1cc(Cc2n[nH]c(=O)c3ccccc23)ccc1F)N1CCN(C(=O)C2CC2)CC1 [Olaparib]

percent of control binding at 10 µM (PRKD2; [5]): 100% | percent of control binding at 10 µM (FGR; [5]): 99% | percent of control binding at 10 µM [1, 5]: 100% | percent of control binding at 10 µM (PKAC-beta; [5]): 56% | percent of control binding at 10 µM (WEE2; [5]): 100% | percent of control binding at 10 µM (MAP3K3; [5]): 94%
SMILES: Cn1ncnc1[C@H]1c2n[nH]c(=O)c3cc(F)cc(c23)N[C@@H]1c1ccc(F)cc1 [Talazoparib]
